Experimental findings from article PMC10687071 (The Journal of Biological Chemistry, 2023) are described below.

Test [1] has as its target T1, Y71F mutant EAG1 channels (Mus musculus, UniProt Q60603, Y71F).
T1 construct: expressed in transfected cells; host or cells: Xenopus laevis oocytes injected with cRNA
T1 sequence (Q60603 1-989 Y71F): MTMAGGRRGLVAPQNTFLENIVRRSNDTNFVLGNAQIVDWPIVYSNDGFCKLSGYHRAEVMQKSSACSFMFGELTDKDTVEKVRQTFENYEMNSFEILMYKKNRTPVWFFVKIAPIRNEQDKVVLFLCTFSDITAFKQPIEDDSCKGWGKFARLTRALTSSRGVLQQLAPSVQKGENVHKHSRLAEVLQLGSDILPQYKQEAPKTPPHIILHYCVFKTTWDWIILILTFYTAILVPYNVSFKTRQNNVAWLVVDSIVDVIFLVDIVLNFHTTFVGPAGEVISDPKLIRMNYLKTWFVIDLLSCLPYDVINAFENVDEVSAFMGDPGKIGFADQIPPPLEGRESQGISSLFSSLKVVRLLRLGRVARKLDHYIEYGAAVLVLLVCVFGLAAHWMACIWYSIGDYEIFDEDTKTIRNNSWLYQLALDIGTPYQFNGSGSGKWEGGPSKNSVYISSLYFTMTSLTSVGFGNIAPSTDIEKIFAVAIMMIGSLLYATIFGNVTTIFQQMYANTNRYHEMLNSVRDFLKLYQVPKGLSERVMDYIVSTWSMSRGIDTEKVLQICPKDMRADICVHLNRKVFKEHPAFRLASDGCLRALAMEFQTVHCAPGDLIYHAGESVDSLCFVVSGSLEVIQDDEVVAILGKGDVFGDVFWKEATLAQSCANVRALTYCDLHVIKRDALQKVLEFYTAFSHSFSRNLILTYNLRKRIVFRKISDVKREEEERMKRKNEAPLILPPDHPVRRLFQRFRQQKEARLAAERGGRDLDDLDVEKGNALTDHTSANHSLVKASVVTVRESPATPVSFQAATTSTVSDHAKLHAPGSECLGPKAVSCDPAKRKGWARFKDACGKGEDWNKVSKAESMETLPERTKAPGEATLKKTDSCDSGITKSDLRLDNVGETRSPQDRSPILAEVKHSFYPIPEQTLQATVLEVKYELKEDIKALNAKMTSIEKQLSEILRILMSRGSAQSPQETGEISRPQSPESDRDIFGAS
Description: TEVC recording, imipramine inhibition, Y71F mutant. It counts as cell-based. The following applies: Y71F mutant EAG1 channel, +50 mV. The text has this:
(§1) The cDNA encoding wild-type (WT) mouse EAG1 channels in pGH19 vector was kindly provided by G. Robertson (University of Wisconsin-Madison, Madison, WI). The mutant ΔPAS EAG1 channel in pGH19 with the deletion of the PAS domain residues 2 to 130 was generated by Bio Basic Inc and verified by DNA sequencing (Genewiz). Mutant EAG1 channels with single amino acid substitutions were generated by Genewiz and verified by DNA sequencing. cRNA was transcribed using the T7 mMessage mMachine kit (Thermo Fisher Scientific). Defolliculated Xenopus laevis oocytes were purchased from Ecocyte Bioscience or Xenopus1 and injected with the cRNA using a Nanoinject II oocyte injector (Drummond).
(§2) For EAG1 current recordings, oocytes were placed into a handmade chamber containing a bath solution for the current recording. The currents were recorded using a TEVC technique with OC-725C amplifier (Warner Instruments) and pClamp11 software (Molecular Devices). The signals were digitized using Digidata 1550 (Molecular Devices). Patch pipettes were pulled from borosilicate glass and had resistances of 0.7 to 1.5 MΩ. The recording (bath) solution contained 96 mM NaCl, 4 mM KCl, 0.1 mM CaCl2, 1.8 mM MgCl2, and 5 mM HEPES, pH 7.5. The pipette solution contained 3 M KCl. […]

For test [2], the target named is T2, Y71R mutant EAG1 channels (Mus musculus, UniProt Q60603, Y71R).
T2 construct: expressed in transfected cells; host or cells: Xenopus laevis oocytes injected with cRNA
T2 sequence (Q60603 1-989 Y71R): T1 sequence (Q60603 1-989 Y71F) with F71R
As to the kind of experiment: TEVC recording, imipramine inhibition, Y71R mutant. It counts as cell-based. The following applies: Y71R mutant EAG1 channel, +50 mV.
Text: as §1, §2

Changes are numbered by the printed parent chain.

On to `CN(C)CCCN1c2ccccc2CCc2ccccc21` [imipramine], for which the IC50 in test [1] was determined as 58 ± 3.7 µM; in test [2] it was 43.4 ± 7.5 µM.

What is called IC50 is the concentration that inhibits the measured activity by half. A low value points to inhibition by little substance.
